The target in assay [1] is Peptidyl-prolyl cis-trans isomerase FKBP1A (Homo sapiens, UniProt P62942). As to the kind of experiment: Binding affinity to FKBP12 (unknown origin) assessed as inhibition constant.
Assay [2] addresses T1, mTORC1 (Homo sapiens, UniProt P42345+Q8N122+Q9BVC4). As to the kind of experiment: Inhibition of mTORC1 (unknown origin) assessed as measuring phosphorylated p7OS6K level at 0.2 uM relative to control. Format: protein-complex assay.
Assay [3] concerns the target T1, mTORC1. As to the kind of experiment: Inhibition of mTORC1 (unknown origin) assessed as measuring phosphorylated 4EBP1 level at 1 uM relative to control. The format is protein-complex assay.
Assay [4] deals with T1, mTORC1. As to the kind of experiment: Inhibition of mTORC1 (unknown origin). The format is protein-complex assay.
The target in assay [5] is T2, Phosphatidylinositol 4,5-bisphosphate 3-kinase catalytic subunit delta isoform (Homo sapiens, UniProt O00329).
T2 sequence (O00329 whole entry): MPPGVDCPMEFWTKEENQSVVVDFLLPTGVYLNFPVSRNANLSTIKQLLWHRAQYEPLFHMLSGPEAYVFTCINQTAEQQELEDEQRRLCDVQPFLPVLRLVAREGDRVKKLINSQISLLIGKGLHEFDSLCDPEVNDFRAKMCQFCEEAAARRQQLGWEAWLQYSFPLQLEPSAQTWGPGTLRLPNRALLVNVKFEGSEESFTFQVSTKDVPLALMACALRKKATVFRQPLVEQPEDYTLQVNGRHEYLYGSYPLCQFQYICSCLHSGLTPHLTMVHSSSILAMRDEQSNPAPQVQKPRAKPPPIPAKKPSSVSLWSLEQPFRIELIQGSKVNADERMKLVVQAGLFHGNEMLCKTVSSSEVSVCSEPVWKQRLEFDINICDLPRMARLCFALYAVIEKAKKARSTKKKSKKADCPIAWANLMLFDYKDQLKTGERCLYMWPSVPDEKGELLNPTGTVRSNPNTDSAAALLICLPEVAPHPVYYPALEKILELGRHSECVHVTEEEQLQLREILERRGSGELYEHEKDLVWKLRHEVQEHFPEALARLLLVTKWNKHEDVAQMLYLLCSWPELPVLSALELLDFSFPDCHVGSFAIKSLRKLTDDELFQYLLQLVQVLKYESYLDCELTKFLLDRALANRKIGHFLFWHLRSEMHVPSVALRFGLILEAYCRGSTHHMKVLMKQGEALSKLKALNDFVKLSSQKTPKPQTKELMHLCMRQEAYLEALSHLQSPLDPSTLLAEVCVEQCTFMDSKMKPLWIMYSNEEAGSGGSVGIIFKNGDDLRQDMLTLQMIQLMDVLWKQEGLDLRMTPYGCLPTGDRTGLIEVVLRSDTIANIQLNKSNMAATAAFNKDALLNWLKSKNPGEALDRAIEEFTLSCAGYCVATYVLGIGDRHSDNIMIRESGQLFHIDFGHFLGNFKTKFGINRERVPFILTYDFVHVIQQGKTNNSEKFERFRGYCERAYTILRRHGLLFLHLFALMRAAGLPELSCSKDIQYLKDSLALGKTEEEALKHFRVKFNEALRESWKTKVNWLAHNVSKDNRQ
As to the kind of experiment: Inhibition of human PI3Kdelta preincubated for 15 mins followed by ATP addition measured after 1 hr by TR-FRET assay.

Assay [6] deals with T1, mTORC1. As to the kind of experiment: Inhibition of mTORC1 in human MDA-MB-468 cells assessed as measuring phosphorylated P70S6K incubated for 2 to 4 hrs by AlphaLISA assay. Format: cell-based.
Assay [7] concerns the target T1, mTORC1. As to the kind of experiment: Inhibition of mTORC1 in human MDA-MB-468 cells assessed as measuring phosphorylated 4EBP1 incubated for 2 to 4 hrs by AlphaLISA assay. Format: cell-based.
Another assay has as its target mTORC2 (Homo sapiens, UniProt P42345+Q6R327+Q9BPZ7+Q9BVC4). As to the kind of experiment: Inhibition of mTORC2 in human MDA-MB-468 cells assessed as measuring phosphorylated AKT incubated for 2 to 4 hrs by AlphaLISA assay. Format: cell-based.
Assay [8] has as its target PI3-kinase p110-alpha/p85-alpha (Homo sapiens, UniProt P42336). As to the kind of experiment: Inhibition of PI3K p110alpha/p85alpha (unknown origin) using PIP2 as substrate preincubated for 15 mins followed by substrate addition measured after 1 hr in presence of ATP by TR-FRET assay. The format is protein-complex assay.

Peptidyl-prolyl cis-trans isomerase FKBP1A, sequence (P62942 whole entry): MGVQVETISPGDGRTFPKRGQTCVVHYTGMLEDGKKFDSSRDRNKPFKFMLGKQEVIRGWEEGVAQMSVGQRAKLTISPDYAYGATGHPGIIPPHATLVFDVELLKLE
PI3-kinase p110-alpha/p85-alpha, sequence (P27986 whole entry): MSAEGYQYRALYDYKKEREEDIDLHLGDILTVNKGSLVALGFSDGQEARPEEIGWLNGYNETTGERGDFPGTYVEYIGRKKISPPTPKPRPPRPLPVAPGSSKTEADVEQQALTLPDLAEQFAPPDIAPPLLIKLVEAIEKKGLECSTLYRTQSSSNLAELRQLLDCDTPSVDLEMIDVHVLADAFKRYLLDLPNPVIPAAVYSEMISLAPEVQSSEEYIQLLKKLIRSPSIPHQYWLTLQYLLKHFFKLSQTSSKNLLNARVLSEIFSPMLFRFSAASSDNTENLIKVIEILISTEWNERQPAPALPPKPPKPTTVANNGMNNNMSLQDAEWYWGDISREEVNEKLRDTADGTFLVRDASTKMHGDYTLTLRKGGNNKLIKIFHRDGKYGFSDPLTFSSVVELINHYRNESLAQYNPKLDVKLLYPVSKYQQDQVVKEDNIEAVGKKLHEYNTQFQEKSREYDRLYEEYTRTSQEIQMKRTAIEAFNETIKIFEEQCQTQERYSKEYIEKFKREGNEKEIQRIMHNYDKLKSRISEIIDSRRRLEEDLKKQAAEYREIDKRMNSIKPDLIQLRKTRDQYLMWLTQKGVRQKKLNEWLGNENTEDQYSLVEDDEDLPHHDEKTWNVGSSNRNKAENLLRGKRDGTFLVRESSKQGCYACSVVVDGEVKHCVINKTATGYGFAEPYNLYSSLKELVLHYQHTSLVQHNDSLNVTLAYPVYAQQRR
PI3-kinase p110-alpha/p85-alpha, sequence (P42336 whole entry): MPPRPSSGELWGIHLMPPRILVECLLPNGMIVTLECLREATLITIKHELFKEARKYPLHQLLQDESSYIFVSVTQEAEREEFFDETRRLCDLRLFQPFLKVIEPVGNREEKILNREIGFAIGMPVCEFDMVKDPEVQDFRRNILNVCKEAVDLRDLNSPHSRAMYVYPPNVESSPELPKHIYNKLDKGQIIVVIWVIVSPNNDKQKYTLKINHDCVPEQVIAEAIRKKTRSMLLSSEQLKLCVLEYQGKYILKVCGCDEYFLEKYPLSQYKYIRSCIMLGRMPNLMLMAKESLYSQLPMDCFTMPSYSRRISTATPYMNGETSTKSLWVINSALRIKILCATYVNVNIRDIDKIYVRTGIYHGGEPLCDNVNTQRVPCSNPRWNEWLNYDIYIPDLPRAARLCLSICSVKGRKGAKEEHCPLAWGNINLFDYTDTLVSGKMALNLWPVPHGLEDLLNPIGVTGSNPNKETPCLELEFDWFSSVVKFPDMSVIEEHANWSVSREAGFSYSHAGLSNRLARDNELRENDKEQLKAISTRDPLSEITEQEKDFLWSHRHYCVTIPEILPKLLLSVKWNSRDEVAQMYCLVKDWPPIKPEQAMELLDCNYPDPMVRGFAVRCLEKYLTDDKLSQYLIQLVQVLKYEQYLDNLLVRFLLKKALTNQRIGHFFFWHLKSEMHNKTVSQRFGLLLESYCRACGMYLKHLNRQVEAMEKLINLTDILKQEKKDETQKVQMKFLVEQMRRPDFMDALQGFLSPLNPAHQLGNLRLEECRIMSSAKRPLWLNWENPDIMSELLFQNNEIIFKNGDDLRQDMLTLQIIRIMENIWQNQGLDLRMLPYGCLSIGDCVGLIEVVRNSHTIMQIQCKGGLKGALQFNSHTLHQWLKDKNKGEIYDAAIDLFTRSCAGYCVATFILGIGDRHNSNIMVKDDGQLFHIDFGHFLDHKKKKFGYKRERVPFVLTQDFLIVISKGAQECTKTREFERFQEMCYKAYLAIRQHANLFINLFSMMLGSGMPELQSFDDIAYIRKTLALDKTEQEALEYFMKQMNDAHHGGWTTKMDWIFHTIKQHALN
T1 sequence (Q8N122 whole entry, looked up, other chains not shown): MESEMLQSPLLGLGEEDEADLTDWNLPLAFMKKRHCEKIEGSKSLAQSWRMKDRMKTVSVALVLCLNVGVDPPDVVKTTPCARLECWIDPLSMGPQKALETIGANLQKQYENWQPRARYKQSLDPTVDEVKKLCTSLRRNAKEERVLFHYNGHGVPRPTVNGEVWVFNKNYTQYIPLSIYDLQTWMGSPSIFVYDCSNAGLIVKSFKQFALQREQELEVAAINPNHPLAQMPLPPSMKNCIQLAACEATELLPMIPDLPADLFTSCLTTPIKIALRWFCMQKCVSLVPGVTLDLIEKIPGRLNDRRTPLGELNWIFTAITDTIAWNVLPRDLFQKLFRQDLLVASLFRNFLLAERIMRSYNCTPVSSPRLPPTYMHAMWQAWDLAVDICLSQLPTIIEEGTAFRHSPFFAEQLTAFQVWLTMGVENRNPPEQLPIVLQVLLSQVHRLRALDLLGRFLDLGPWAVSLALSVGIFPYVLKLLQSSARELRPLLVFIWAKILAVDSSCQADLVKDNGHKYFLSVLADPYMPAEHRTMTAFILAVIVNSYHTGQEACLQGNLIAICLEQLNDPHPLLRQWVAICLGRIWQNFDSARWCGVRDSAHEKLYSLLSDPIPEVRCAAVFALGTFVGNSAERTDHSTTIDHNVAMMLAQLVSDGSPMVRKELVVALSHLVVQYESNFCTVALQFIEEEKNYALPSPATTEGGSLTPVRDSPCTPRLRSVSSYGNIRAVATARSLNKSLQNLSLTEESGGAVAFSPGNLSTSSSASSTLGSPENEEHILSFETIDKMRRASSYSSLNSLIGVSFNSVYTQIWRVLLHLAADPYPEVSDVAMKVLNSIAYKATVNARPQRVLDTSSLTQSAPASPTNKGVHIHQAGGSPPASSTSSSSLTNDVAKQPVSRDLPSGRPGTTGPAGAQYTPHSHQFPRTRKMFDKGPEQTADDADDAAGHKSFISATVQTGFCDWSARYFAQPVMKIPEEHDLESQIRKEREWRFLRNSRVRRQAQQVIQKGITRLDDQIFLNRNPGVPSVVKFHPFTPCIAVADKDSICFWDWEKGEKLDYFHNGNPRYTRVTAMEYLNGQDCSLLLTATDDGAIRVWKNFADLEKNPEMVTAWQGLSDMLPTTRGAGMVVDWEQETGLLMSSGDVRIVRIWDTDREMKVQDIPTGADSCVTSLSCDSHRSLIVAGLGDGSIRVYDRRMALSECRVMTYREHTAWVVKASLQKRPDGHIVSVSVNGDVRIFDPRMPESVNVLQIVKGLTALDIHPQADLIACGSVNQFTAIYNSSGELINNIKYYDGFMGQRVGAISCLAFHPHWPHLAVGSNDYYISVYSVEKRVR
T1 sequence (Q9BVC4 whole entry, looked up, other chains not shown): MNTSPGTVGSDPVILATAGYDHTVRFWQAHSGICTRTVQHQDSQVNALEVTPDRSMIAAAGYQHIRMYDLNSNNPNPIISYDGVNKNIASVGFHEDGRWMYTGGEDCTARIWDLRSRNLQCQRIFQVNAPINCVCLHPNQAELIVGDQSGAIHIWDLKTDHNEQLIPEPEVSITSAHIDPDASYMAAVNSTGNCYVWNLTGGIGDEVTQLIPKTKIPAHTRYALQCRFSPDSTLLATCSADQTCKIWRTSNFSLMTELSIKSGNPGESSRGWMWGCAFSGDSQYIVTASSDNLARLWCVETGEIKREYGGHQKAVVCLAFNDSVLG

Take `CO[C@@H]1C[C@@H]2CC[C@@H](C)[C@@](O)(O2)C(=O)C(=O)N2CCCC[C@H]2C(=O)OC([C@H](C)C[C@@H]2CC[C@@H](O)[C@H](O)C2)C/C=C(\C)[C@@H](O)CC(=O)[C@H](C)C[C@H](C)/C=C/C=C/C=C/1C` (stereo partly specified): the Ki in assay [1] was 4.2 nM.
`CNC(=O)c1cc(-c2ccc3c(N4CCOC[C@@H]4C)nc(N4CCO[C@@H]5CCC[C@@H]54)nc3n2)ccc1F`: the results for the inhibition on mTORC1 [2] and on mTORC1 [3] were 77.5% and 60.8%, respectively.
`Nc1ncnc2c1c(-c1cc3cccc(O)c3[nH]1)nn2C1CCOCC1`: the IC50 on mTORC1 [4] is below 5 nM; in assay [5], 100 nM.
For `CC(=O)N1CCC(n2nc(-c3cc4c(Cl)ccc(O)c4[nH]3)c3c(N)ncnc32)CC1` the same measures were below 5 nM and 100 nM.
Turning to `CO[C@@H]1C[C@@H]2CC[C@@H](C)[C@@](O)(O2)C(=O)C(=O)N2CCCC[C@H]2C(=O)OC([C@H](C)C[C@@H]2CC[C@@H](O)[C@H](OC)C2)CC(O)CC(=O)[C@H](C)/C=C(\C)[C@@H](O)CC(=O)[C@H](C)C[C@H](C)/C=C/C=C/C=C/1C` (stereo partly specified), the Ki in assay [1] came to 6.5 nM.
For the molecule `CO[C@H]1C[C@@H]2CC[C@@H](C)[C@@](O)(O2)C(=O)C(=O)N2CCCC[C@H]2C(=O)O[C@H]([C@H](C)C[C@@H]2CC[C@@H](OCCCN3CCOC(C)(C)C3)[C@H](OC)C2)C[C@@H](O)[C@H](C)/C=C(\C)[C@@H](O)[C@@H](OC)C(NOCC(=O)NCCOCCOCCOCCOCCOCCOCCC(=O)N2CCc3cc(Cn4nc(-c5ccc6oc(N)nc6c5)c5c(N)ncnc54)ccc3C2)[C@H](C)C[C@H](C)C\C=C/C=C/C=C/1C` (stereo partly specified), the IC50 at mTORC1 [6] is at most 1 nM; at mTORC1 [7], at most 3.16 nM; on mTORC2, 1000 nM.
For `C[C@H]1COCCN1c1nc(Oc2ccc(C(=O)N(C)C)cc2)nc(-c2cnc(N)s2)n1`, the IC50 in assay [8] is below 1000 nM.
Consider `COc1cccc2cc(-c3nc([C@H]4CC[C@H](C(=O)NCCOCCOCCNC(=O)CCOCCOCCOCCOCCn5cc(CCCCO[C@@H]6CC[C@@H](C[C@@H](C)[C@@H]7C[C@@H](OC)[C@H](C)/C=C(\C)[C@@H](O)[C@@H](OC)C(=O)[C@H](C)C[C@H](C)C\C=C/C=C/C=C(\C)[C@@H](OC)C[C@@H]8CC[C@@H](C)[C@@](O)(O8)C(=O)C(=O)N8CCCC[C@H]8C(=O)O7)C[C@H]6OC)nn5)CC4)n4ncnc(N)c34)[nH]c12`, for which the values for the IC50 at mTORC1 [6], on mTORC1 [7] and on mTORC2 were at most 1 nM, at most 3.16 nM and above 31.6 nM, respectively.
Take `CNC(=O)c1cccc(-c2ccc3c(N4CCOC[C@@H]4C)nc(N4CCO[C@@H]5CCCC[C@@H]54)nc3n2)c1`: the results for the inhibition on mTORC1 [2] and on mTORC1 [3] were 109% and 77.8%, respectively.
For `Nc1ncnc2c1c(-c1cc3cc(O)ccc3[nH]1)nn2C1CCOCC1`, the IC50 on mTORC1 [4] was below 5 nM; in assay [5] it was 50 nM.
Regarding `Cc1cc(Oc2nc(-c3ccc(N)nc3)nc(N3CCOCC3)n2)ccc1C(=O)N(C)C`, the IC50 in [8] is below 1000 nM.
Regarding `CO[C@@H]1C[C@@H]2CC[C@@H](C)[C@@](O)(O2)C(=O)C(=O)N2CCCC[C@H]2C(=O)OC([C@H](C)C[C@H]2CC[C@H](O)CC2)C/C=C(\C)[C@@H](O)CC(=O)[C@H](C)C[C@H](C)/C=C/C=C/C=C/1C` (stereo partly specified), the Ki in assay [1] was 7.9 nM.
Consider `C\C1=C/C=C/C=C/[C@@H](C)C[C@@H](C)C(=O)C[C@H](O)/C(C)=C/CC([C@H](C)C[C@H]2CC[C@H](O)CC2)OC(=O)[C@@H]2CCCCN2C(=O)C(=O)[C@]2(O)O[C@@H](CC[C@H]2C)C[C@H]1O` (stereo partly specified), for which the Ki in assay [1] came to 7.7 nM.
For the molecule `CO[C@H]1C[C@@H]2CC[C@@H](C)[C@@](O)(O2)C(=O)C(=O)N2CCCC[C@H]2C(=O)O[C@H]([C@H](C)C[C@@H]2CC[C@@H](O)[C@H](OC)C2)C[C@@H](O)[C@H](C)/C=C(\C)[C@@H](O)[C@@H](OC)/C(=N\OCc2cn(-c3cnc(N4CCN(c5ncc(C(=O)NCCOCCC(=O)NCCCCn6nc(-c7ccc8oc(N)nc8c7)c7c(N)ncnc76)cn5)CC4)nc3)nn2)[C@H](C)C[C@H](C)C\C=C/C=C/C=C/1C`, the results for the IC50 on mTORC1 [6], on mTORC1 [7] and at mTORC2 were at most 1 nM, at most 3.16 nM and above 31.6 nM, respectively.
Regarding `COc1cccc2cc(-c3nc([C@H]4CC[C@H](C(=O)NCCOCCOCCNC(=O)CCOCCOCCOCCOCCn5cc(CCCCO[C@@H]6CC[C@@H](C[C@@H](C)[C@@H]7CC(=O)[C@H](C)/C=C(\C)[C@@H](O)[C@@H](OC)C(=O)[C@H](C)C[C@H](C)C\C=C/C=C/C=C(\C)[C@@H](OC)C[C@@H]8CC[C@@H](C)[C@@](O)(O8)C(=O)C(=O)N8CCCC[C@H]8C(=O)O7)C[C@H]6OC)nn5)CC4)n4ncnc(N)c34)[nH]c12`, the values for the IC50 at mTORC1 [6], at mTORC1 [7] and on mTORC2 were at most 1 nM, at most 3.16 nM and above 31.6 nM, respectively.
`C[C@H]1COC[C@H](C)N1c1nc(Oc2ccc(C(=O)N(C)C)cc2)nc(-c2cnc(N)s2)n1`: in [8], the IC50 was below 1000 nM.
In the case of `CO[C@@H]1C[C@@H]2CC[C@@H](C)[C@@](O)(O2)C(=O)C(=O)N2CCCC[C@H]2C(=O)OC([C@H](C)C[C@@H]2CC[C@@H](O)[C@H](OC)C2)C/C=C(\C)[C@@H](O)CC(=O)[C@H](C)C[C@H](C)/C=C/C=C/C=C/1C` (stereo partly specified), the Ki in assay [1] stood at 5.9 nM.
As for `CNC(=O)c1cccc(-c2ccc3c(N4CCOC[C@@H]4C)nc(N4CCOc5ccccc54)nc3n2)c1`, the results for the inhibition on mTORC1 [2] and at mTORC1 [3] were 87.7% and 61%, respectively.
As for `CO[C@H]1C[C@@H]2CC[C@@H](C)[C@@](O)(O2)C(=O)C(=O)N2CCCC[C@H]2C(=O)O[C@H]([C@H](C)C[C@@H]2CC[C@@H](OCCCCc3cn(CCOCCOCCOCCOCCOCCOCCC(=O)NCCCCn4nc(-c5cccc(C(=O)NC6=NCCS6)c5)c5c(N)ncnc54)nn3)[C@H](OC)C2)CC(=O)[C@H](C)/C=C(\C)[C@@H](O)[C@@H](OC)C(=O)[C@H](C)C[C@H](C)C\C=C/C=C/C=C/1C`, the IC50 at mTORC1 [6] was at most 1 nM; on mTORC1 [7], at most 3.16 nM; on mTORC2, above 31.6 nM.
The like results for `CO[C@H]1C[C@@H]2CC[C@@H](C)[C@@](O)(O2)C(=O)C(=O)N2CCCC[C@H]2C(=O)O[C@H]([C@H](C)C[C@@H]2CC[C@@H](OCCCN3CCOC(C)(C)C3)[C@H](OC)C2)CC[C@H](C)/C=C(\C)[C@@H](O)[C@@H](OC)C(NOCC(=O)NCCOCCOCCOCCOCCOCCOCCC(=O)N2CCc3cc(Cn4nc(-c5ccc6oc(N)nc6c5)c5c(N)ncnc54)ccc3C2)[C@H](C)C[C@H](C)C\C=C/C=C/C=C/1C` (stereo partly specified) were, in that order, at most 1 nM, at most 3.16 nM and 1000 nM.
Regarding `CN(C)C(=O)c1ccc(Oc2nc(-c3cnc(N)cc3C(F)(F)F)nc(N3CCOCC3)n2)c(F)c1`, in assay [8], the IC50 is below 1000 nM.
Consider `CO[C@H]1C[C@@H]2CC[C@@H](C)[C@@](O)(O2)C(=O)C(=O)N2CCCC[C@H]2C(=O)O[C@H]([C@H](C)C[C@@H]2CC[C@@H](OCCCN3CCOC(C)(C)C3)[C@H](OC)C2)C[C@@H](O)[C@H](C)/C=C(\C)[C@@H](O)[C@@H](OC)C(NOCC(=O)NCCOCCOCCOCCOCCOCCOCCC(=O)N2CCC(n3nc(-c4ccc5oc(N)nc5c4)c4c(N)ncnc43)CC2)[C@H](C)C[C@H](C)C\C=C/C=C/C=C/1C` (stereo partly specified), for which the results for the IC50 on mTORC1 [6], on mTORC1 [7] and at mTORC2 were at most 1 nM, at most 3.16 nM and 1000 nM, respectively.
With `CO[C@H]1C[C@@H]2CC[C@@H](C)[C@@](O)(O2)C(=O)C(=O)N2CCCC[C@H]2C(=O)O[C@H]([C@H](C)C[C@@H]2CC[C@@H](OCc3cccc(-c4cnc(N5CCN(C(=O)CCc6cn(CCOCCOCCC(=O)NCCCCn7nc(-c8ccc9nc(N)oc9c8)c8c(N)ncnc87)nn6)CC5)nc4)c3)[C@H](OC)C2)CC(=O)[C@H](C)/C=C(\C)[C@@H](O)[C@@H](OC)C(=O)[C@H](C)C[C@H](C)C\C=C/C=C/C=C/1C`, the figures for the IC50 on mTORC1 [6], at mTORC1 [7] and on mTORC2 were at most 1 nM, at most 3.16 nM and above 31.6 nM, respectively.
As for `CN(C)C(=O)c1ccc(Oc2nc(-c3cnc4[nH]ccc4c3)nc(N3CCOCC3)n2)c(F)c1`, the IC50 in assay [8] is below 1000 nM.
